US9266867B2, “Piperidinyl monocarboxylic acids as S1P1 receptor agonists” (BIOPROJET, priority 2011, dated 2016)
Structures can show the parent of a compound that is named as a salt.

What follows are molecules tested against EDG-1 (Homo sapiens, UniProt P21453) (assay: 35S-GTPγS binding assay, EDG1 (S1P1)). Conditions: not given.
Format: biochemical
Set-up: expressed in transfected cells
Experimental: a) 35S-GTPγS Binding Assay GTP-γ-^35S binding was performed using […]15 μg protein of cell membranes suspended in 50 mM tris-HCl pH 7.5 containing 10 mM MgCl2, 100 mM NaCl and 10 μM GDP. The radioligand was 0.025 nM [^35S] GTP-γ-S and non specific binding determined in the presence of 10 μM non-radioactive GTP-γ-S. […] The maximal stimulation elicited by S1P was taken as a reference to define full or partial agonism and calculate the intrinsic activity (i.a.) of compounds.

Chain of EDG-1 (P21453 whole entry): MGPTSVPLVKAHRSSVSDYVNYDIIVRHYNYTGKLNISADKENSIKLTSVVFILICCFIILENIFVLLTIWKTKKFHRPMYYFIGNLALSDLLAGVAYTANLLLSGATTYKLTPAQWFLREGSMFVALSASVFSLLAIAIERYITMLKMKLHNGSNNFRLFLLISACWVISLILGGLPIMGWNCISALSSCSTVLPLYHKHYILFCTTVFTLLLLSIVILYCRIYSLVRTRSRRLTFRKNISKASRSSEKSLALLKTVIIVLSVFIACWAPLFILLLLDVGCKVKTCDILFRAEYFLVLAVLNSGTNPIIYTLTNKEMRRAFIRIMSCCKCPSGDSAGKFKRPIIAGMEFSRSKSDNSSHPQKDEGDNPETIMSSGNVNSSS

Work on `CC(C)Cc1ccc(-c2nc(-c3ccc(CN4CCC(C(=O)O)(c5ccccc5)CC4)cc3)no2)cc1Cl` [Example 23, 1-{4-[5-(3-Chloro-4-isobutylphenyl)-[1,2,4]-oxadiazol-3-yl]-benzyl}-4-phenylpiperidine-4-carboxylic acid tert-butyl amine salt] yielded an EC50 of under 10 nM.

Same assay, conditions: Table 1b; read-out: EDG1 EC50

`COCC1(C(=O)O)CCN(Cc2ccc(-c3noc(-c4ccc(CC(C)C)c(Cl)c4)n3)cc2)CC1` [Example 16, 1-{4-[5-(3-Chloro-4-isobutylphenyl)-[1,2,4]-oxadiazol-3-yl]-benzyl}-4-methoxymethylpiperidine-4-carboxylic acid tert-butyl amine salt] and `COCCOCC1(C(=O)O)CCN(Cc2ccc(-c3noc(-c4ccc(CC(C)C)c(Cl)c4)n3)cc2)CC1` [Example 33, 1-{4-[5-(3-chloro-4-isobutylphenyl)-[1,2,4]-oxadiazol-3-yl]benzyl}-4-(2-methoxyethoxymethyl)piperidine-4-carboxylic acid potassium salt] cannot be ordered by EC50: under 1 nM for the first, under 1 nM for the second.

`C=CCC1(C(=O)O)CCN(Cc2ccc(-c3noc(-c4ccc(-c5ccccc5)c(Cl)c4)n3)cc2)CC1` [Example 17, 4-Allyl-1-{4-[5-(2-chlorobiphenyl-4-yl)-[1,2,4]-oxadiazol-3-yl]-benzyl}piperidine-4-carboxylic acid tert-butyl amine salt] and `O=C(O)C1(CO)CCN(Cc2ccc(-c3noc(-c4ccc(-c5ccccc5)c(Cl)c4)n3)cc2)CC1` [Example 22, 1-{4-[5-(2-Chlorobiphenyl-4-yl)-[1,2,4]-oxadiazol-3-yl]-benzyl}-4-hydroxymethylpiperidine-4-carboxylic acid tert-butyl amine salt] cannot be ordered by EC50: under 1 nM for the first, under 1 nM for the second.

`CCCC1(C(=O)O)CCN(Cc2ccc(-c3noc(-c4ccc(-c5ccccc5)c(Cl)c4)n3)cc2)CC1` [Example 18, 1-{4-[5-(2-Chlorobiphenyl-4-yl)-[1,2,4]-oxadiazol-3-yl]-benzyl}-4-propylpiperidine-4-carboxylic acid tert-butyl amine salt] and `CCC1(C(=O)O)CCN(Cc2ccc(-c3noc(-c4ccc(-c5ccccc5)c(Cl)c4)n3)cc2)CC1` [Example 30, 1-{4-[5-(2-Chlorobiphenyl-4-yl)-[1,2,4]-oxadiazol-3-yl]-benzyl}-4-ethylpiperidine-4-carboxylic acid tert-butyl amine salt] cannot be ordered by EC50: under 1 nM for the first, under 1 nM for the second.

`COCCOCC1(C(=O)O)CCN(Cc2ccc(-c3noc(-c4ccc(-c5ccccc5)c(Cl)c4)n3)cc2)CC1` [Example 19, 1-{4-[5-(2-Chlorobiphenyl-4-yl)-[1,2,4]-oxadiazol-3-yl]-benzyl}-4-(2-methoxyethoxymethyl)piperidine-4-carboxylic acid tert-butyl amine salt] and `COCC1(C(=O)O)CCN(Cc2ccc(-c3noc(-c4ccc(-c5ccccc5)c(Cl)c4)n3)cc2)CC1` [Example 29, 1-{4-[5-(2-chlorobiphenyl-4-yl)-[1,2,4]-oxadiazol-3-yl]benzyl}-4-methoxymethylpiperidine-4-carboxylic acid tert-butyl amine salt] cannot be ordered by EC50: under 1 nM for the first, under 1 nM for the second.

`O=C(O)C1(COCc2ccccc2)CCN(Cc2ccc(-c3noc(-c4ccc(-c5ccccc5)c(Cl)c4)n3)cc2)CC1` [Example 20, 4-Benzyloxymethyl-1-{4-[5-(2-chlorobiphenyl-4-yl)-[1,2,4]-oxadiazol-3-yl]-benzyl}piperidine-4-carboxylic acid tert-butyl amine salt] and `CC(C)Cc1ccc(-c2nc(-c3ccc(CN4CCC(COCc5ccccc5)(C(=O)O)CC4)cc3)no2)cc1Cl` [Example 21, 4-Benzyloxymethyl-1-[4-{5-(3-chloro-4-isobutylphenyl)-[1,2,4]-oxadiazol-3-yl]-benzyl}piperidine-4-carboxylic acid tert-butyl amine salt] cannot be ordered by EC50: under 1 nM for the first, under 1 nM for the second.

`CC(C)Cc1ccc(-c2nc(-c3ccc(CN4CCC(Cc5ccccc5)(C(=O)O)CC4)cc3)no2)cc1Cl` [Example 24, 4-Benzyl-1-[4-{5-(3-chloro-4-isobutylphenyl)-[1,2,4]-oxadiazol-3-yl]benzyl}-piperidine-4-carboxylic acid tert-butyl amine salt] and `CC(C)Cc1ccc(-c2nc(-c3ccc(CN4CCC(Cc5ccccc5F)(C(=O)O)CC4)cc3)no2)cc1Cl` [Example 26, 1-{4-[5-(3-Chloro-4-isobutyl-phenyl)-[1,2,4]-oxadiazol-3-yl]-benzyl}-4-(2-fluoro-benzyl)-piperidine-4-carboxylic acid tert-butyl amine salt] cannot be ordered by EC50: under 10 nM for the first, under 1 nM for the second.

`CC(C)Cc1ccc(-c2nc(-c3ccc(CN4CCC(Cc5ccc(F)cc5)(C(=O)O)CC4)cc3)no2)cc1Cl` [Example 25, 1-{4-[5-(3-Chloro-4-isobutyl-phenyl)-[1,2,4]-oxadiazol-3-yl]-benzyl}-4-(4-fluoro-benzyl)-piperidine-4-carboxylic acid tert-butyl amine salt] and `COc1ccc(CC2(C(=O)O)CCN(Cc3ccc(-c4noc(-c5ccc(CC(C)C)c(Cl)c5)n4)cc3)CC2)cc1` [Example 27, 1-{4-[5-(3-Chloro-4-isobutyl-phenyl)-[1,2,4]-oxadiazol-3-yl]-benzyl}-4-(4-methoxy-benzyl)-piperidine-4-carboxylic acid tert-butyl amine salt] cannot be ordered by EC50: under 1 nM for the first, under 1 nM for the second.

`COc1ccccc1CC1(C(=O)O)CCN(Cc2ccc(-c3noc(-c4ccc(CC(C)C)c(Cl)c4)n3)cc2)CC1` [Example 28, 1-{4-[5-(3-Chloro-4-isobutyl-phenyl)-[1,2,4]-oxadiazol-3-yl]-benzyl}-4-(2-methoxy-benzyl)-piperidine-4-carboxylic acid tert-butyl amine salt] and `COc1ccccc1OCCC1(C(=O)O)CCN(Cc2ccc(-c3noc(-c4ccc(CC(C)C)c(Cl)c4)n3)cc2)CC1` [Example 41, 1-{4-[5-(3-Chloro-4-isobutyl-phenyl)-[1,2,4]-oxadiazol-3-yl]-benzyl}-4-[2-(2-methoxy-phenoxy)-ethyl]-piperidine-4-carboxylic acid tert-butyl amine salt] cannot be ordered by EC50: under 1 nM for the first, under 1 nM for the second.

`CC(C)Cc1ccc(-c2nc(-c3ccc(CN4CCC(C)(C(=O)O)CC4)cc3)no2)cc1` [Example 31, 1-{4-[5-(4-Isobutyl-phenyl)-[1,2,4]-oxadiazol-3-yl]-benzyl}-4-methyl-piperidine-4-carboxylic acid tert-butyl amine salt] and `CC(C)Cc1ccc(-c2nc(-c3ccc(CN4CCC(C(=O)O)(C(C)C)CC4)cc3)no2)cc1Cl` [Example 37, 1-{4-[5-(3-Chloro-4-isobutyl-phenyl)-[1,2,4]-oxadiazol-3-yl]-benzyl}-4-isopropyl-piperidine-4-carboxylic acid tert-butyl amine salt] cannot be ordered by EC50: under 10 nM for the first, under 1 nM for the second.

`COCCCCC1(C(=O)O)CCN(Cc2ccc(-c3noc(-c4ccc(CC(C)C)c(Cl)c4)n3)cc2)CC1` [Example 32, 1-{4-[5-(3-Chloro-4-isobutylphenyl-[1,2,4]-oxadiazol-3-yl]benzyl}-4-(4-methoxybutyl)piperidine-4-carboxylic acid tert-butylamine salt] and `CC(C)Cc1ccc(-c2nc(-c3ccc(CN4CCC(CC(C)C)(C(=O)O)CC4)cc3)no2)cc1Cl` [Example 36, 1-{4-[5-(3-Chloro-4-isobutyl-phenyl)-[1,2,4]-oxadiazol-3-yl]-benzyl}-4-isobutyl-piperidine-4-carboxylic acid tert-butyl amine salt] cannot be ordered by EC50: under 1 nM for the first, under 10 nM for the second.

`CC(C)Cc1ccc(-c2nc(-c3ccc(CN4CCC(CCOc5ccccc5)(C(=O)O)CC4)cc3)no2)cc1Cl` [Example 34, 1-{4-[5-(3-Chloro-4-isobutyl-phenyl)-[1,2,4]-oxadiazol-3-yl]-benzyl}-4-(2-phenoxy-ethyl)-piperidine-4-carboxylic acid tert-butyl amine salt] and `CC(C)Cc1ccc(-c2nc(-c3ccc(CN4CCC(Cc5ccccn5)(C(=O)O)CC4)cc3)no2)cc1Cl` [Example 40, 1-{4-[5-(3-Chloro-4-isobutyl-phenyl)-[1,2,4]-oxadiazol-3-yl]-benzyl}-4-pyridin-2-ylmethyl-piperidine-4-carboxylic acid tert-butyl amine salt] cannot be ordered by EC50: under 1 nM for the first, under 1 nM for the second.

`CC(C)Cc1ccc(-c2nc(-c3ccc(CN4CCC(Cc5c(F)cccc5F)(C(=O)O)CC4)cc3)no2)cc1Cl` [Example 35, 1-{4-[5-(3-Chloro-4-isobutyl-phenyl)-[1,2,4]-oxadiazol-3-yl]-benzyl}-4-(2,6-difluoro-benzyl)-piperidine-4-carboxylic acid tert-butyl amine salt] and `CC(C)Cc1ccc(-c2nc(-c3ccc(CN4CCC(Cc5ccco5)(C(=O)O)CC4)cc3)no2)cc1Cl` [Example 39, 1-{4-[5-(3-Chloro-4-isobutyl-phenyl)-[1,2,4]-oxadiazol-3-yl]-benzyl}-4-furan-2-ylmethyl-piperidine-4-carboxylic acid tert-butyl amine salt] cannot be ordered by EC50: under 1 nM for the first, under 10 nM for the second.

`CC(C)Cc1ccc(-c2nc(-c3ccc(CN4CCC(Cc5cccc(C(F)(F)F)c5)(C(=O)O)CC4)cc3)no2)cc1Cl` [Example 38, 1-{4-[5-(3-Chloro-4-isobutyl-phenyl)-[1,2,4]-oxadiazol-3-yl]-benzyl}-4-(3-trifluoromethyl-benzyl)-piperidine-4-carboxylic acid tert-butyl amine salt] and `CC(C)Cc1ccc(-c2nc(-c3ccc(CN4CCC(Cc5cccnc5)(C(=O)O)CC4)cc3)no2)cc1Cl` [Example 42, 1-{4-[5-(3-Chloro-4-isobutyl-phenyl)-[1,2,4]-oxadiazol-3-yl]-benzyl}-4-pyridin-3-ylmethyl-piperidine-4-carboxylic acid tert-butyl amine salt] cannot be ordered by EC50: under 10 nM for the first, under 1 nM for the second.

With `CC(C)Cc1ccc(-c2nc(-c3ccc(CN4CCC(Cc5ccncc5)(C(=O)O)CC4)cc3)no2)cc1Cl` [Example 43, 1-{4-[5-(3-Chloro-4-isobutyl-phenyl)-[1,2,4]-oxadiazol-3-yl]-benzyl}-4-pyridin-4-ylmethyl-piperidine-4-carboxylic acid tert-butyl amine salt] the EC50 was under 1 nM.
